Data published in US7504423B2, “α-amino acid derivatives and use thereof as medicines” (Mitsubishi Tanabe Pharma Corporation, priority 2003, dated 2009).

How the values were obtained:
Human plasma DPP-IV = target: T1, Human plasma DPP-IV (Homo sapiens, UniProt P27487); assay: Plasma DPP-IV inhibitory activity (fluorescence assay, Gly-Pro-MCA substrate), human plasma; type: biochemical; conditions: human plasma (10-fold diluted), room temperature, 60 min
T1 construct: Human plasma DPP-IV; from tissue; host or cells: human plasma
T1 sequence (P27487 39-766 limits assumed): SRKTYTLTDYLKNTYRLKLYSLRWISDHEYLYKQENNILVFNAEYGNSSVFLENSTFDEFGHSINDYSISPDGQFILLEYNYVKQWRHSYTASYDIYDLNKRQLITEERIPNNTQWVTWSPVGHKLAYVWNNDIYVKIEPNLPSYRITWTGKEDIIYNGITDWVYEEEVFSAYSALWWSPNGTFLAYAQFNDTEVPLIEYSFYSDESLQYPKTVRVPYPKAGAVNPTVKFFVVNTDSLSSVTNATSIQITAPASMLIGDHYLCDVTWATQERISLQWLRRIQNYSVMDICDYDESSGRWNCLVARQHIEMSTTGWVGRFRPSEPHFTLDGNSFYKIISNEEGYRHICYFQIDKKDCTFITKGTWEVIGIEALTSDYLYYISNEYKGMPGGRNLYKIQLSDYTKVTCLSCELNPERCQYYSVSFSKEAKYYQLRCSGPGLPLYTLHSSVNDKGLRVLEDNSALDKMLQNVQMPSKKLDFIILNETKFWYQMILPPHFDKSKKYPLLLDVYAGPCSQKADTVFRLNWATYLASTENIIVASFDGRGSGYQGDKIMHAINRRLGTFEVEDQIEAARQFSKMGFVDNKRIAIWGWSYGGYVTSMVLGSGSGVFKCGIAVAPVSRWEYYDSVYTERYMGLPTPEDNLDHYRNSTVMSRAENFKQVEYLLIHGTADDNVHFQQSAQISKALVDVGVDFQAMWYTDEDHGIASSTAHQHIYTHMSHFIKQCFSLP
Description: (§1) (Plasma DPP-IV Inhibitory Activity)
(§2) The plasma DPP-IV inhibitory activity of human and rat was measured by the fluorescence assay method. Using Gly-Pro-MCA (Peptide Institute Inc.) as a DPP-IV specific fluorescent substrate, reaction solutions having the following compositions and containing test substances having various concentrations were incubated at room temperature for 60 min and the measured (SPECTRA FLUOR, TECAN) fluorescent intensity (Excitation 360 nm/Emission 465 nm) was taken as the DPP-IV activity.
(§3) As a buffer, 0.003% Brij-35-containing phosphate buffer (PBS, Sigma-Aldrich Co.) was used.
(§4) A reaction solution free of the test substance was used as a control.
(§5) The inhibitory rate of the test substance relative to the reaction of the control was calculated, and IC50 values were determined by logistic analysis. The IC50 values of the plasma DPP-IV inhibitory activity of the present invention as determined by the above method are shown in the following table.

Rat plasma DPP-IV = target: T2, Rat plasma DPP-IV (Rattus norvegicus, UniProt P14740); assay: Plasma DPP-IV inhibitory activity (fluorescence assay, Gly-Pro-MCA substrate), rat plasma; type: biochemical; conditions: rat plasma (10-fold diluted), room temperature, 60 min
T2 construct: Rat plasma DPP-IV; from tissue; host or cells: rat plasma
T2 sequence (P14740 38-767 limits assumed): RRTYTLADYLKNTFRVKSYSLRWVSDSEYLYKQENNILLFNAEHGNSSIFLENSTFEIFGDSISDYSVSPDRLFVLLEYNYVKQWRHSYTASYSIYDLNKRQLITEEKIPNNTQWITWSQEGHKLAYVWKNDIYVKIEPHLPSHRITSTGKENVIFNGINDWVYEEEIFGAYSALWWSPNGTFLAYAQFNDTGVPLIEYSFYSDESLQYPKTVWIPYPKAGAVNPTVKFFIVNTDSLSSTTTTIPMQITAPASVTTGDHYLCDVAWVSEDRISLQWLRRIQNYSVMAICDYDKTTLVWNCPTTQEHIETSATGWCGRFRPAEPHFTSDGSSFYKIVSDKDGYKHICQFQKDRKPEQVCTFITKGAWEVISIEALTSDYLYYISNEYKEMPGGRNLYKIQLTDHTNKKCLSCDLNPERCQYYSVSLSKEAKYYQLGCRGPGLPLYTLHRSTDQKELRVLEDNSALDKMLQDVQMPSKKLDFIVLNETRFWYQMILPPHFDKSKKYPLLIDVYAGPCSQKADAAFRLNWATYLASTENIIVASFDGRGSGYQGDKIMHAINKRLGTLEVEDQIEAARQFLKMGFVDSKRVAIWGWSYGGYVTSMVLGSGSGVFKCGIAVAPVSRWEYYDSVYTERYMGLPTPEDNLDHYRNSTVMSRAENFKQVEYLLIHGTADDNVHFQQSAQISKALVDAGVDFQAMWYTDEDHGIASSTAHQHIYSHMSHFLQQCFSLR
Description: as §1, §2, §3, §4, §5

Structure (SMILES) | IC50 (Human plasma DPP-IV) [nM] | IC50 (Rat plasma DPP-IV) [nM]
N#Cc1ccc(N2CCN([C@H]3CC[C@@H]([C@H](N)C(=O)N4CCSC4)CC3)CC2)nc1 [Example 2, 3-((S)-2-amino-2-{cis-4-[4-(5-cyano-2-pyridyl)-1-piperazinyl]-1-cyclohexyl}acetyl)-1,3-thiazolidine] | 1.6 | 1.4
N[C@H](C(=O)N1CCSC1)[C@H]1CC[C@@H](N2CCN(c3nc4ccccc4s3)CC2)CC1 [Example 14, 3-((S)-2-amino-2-{cis-4-[4-(2-benzothiazolyl)-1-piperazinyl]-1-cyclohexyl}acetyl)-1,3-thiazolidine] | 2.1 | 1.4
